Experimental data reported in patent publication US12201610B2, “Compositions comprising aticaprant” (Janssen Pharmaceuticals, Inc., priority 2022, dated 2025).

How the values were obtained:
subjects with MDD [1] = test: HAM-A6 total score (Example 6); type: in vivo, human; settings: 10 mg; Treatment Week 6; 59 subjects analyzed
Excerpt: v. To investigate the effect of aticaprant on symptoms of anxiety using the HAM-A and on core symptoms of anxiety using the HAM-A6 subscale.
• (i) Depression: Montgomery-Åsberg Depression Rating Scale (MADRS), Clinical Global Impression-Severity (CGI-S), Symptoms of Major Depressive Disorder Scale (SMDDS), and Self-assessment of treatment experience (SATE) • (ii) Anhedonia: Snaith-Hamilton Pleasure Scale (SHAPS) • (iii) Anxiety: Structured Interview Guide for the Hamilton Anxiety scale (SIGH-A) and HAM-A6 • (iv) Effects on Cognition: The Cognitive and Physical Functioning Questionnaire (CPFQ) • (v) Safety assessments

subjects with MDD [2] = test: CGI-S total score (Example 6); type: in vivo, human; settings: 10 mg; 59 subjects analyzed; 'at Treatment' (week not given)
Excerpt: CGI-S is a scale that rates the severity of the subject's illness at the time of assessment, relative to the clinician's past experience with subjects who have the same diagnosis and improvement with treatment. CGI-S provides an overall clinician-determined summary measure of severity of subject's illness that considers all available information, including knowledge of subject's history, psychosocial circumstances, symptoms, behavior, and impact of symptoms on subject's ability to function. CGI-S evaluates severity of psychopathology on scale of 0 to 7. Subject is assessed on severity of mental illness at time of rating according to: 0=not assessed; 1=normal (not at all ill); 2=borderline mentally ill; 3=mildly ill; 4=moderately ill; 5=markedly ill; 6=severely ill; 7=among most extremely ill patients.
iv. To investigate the effect of aticaprant on symptoms of depression using the Clinical Global Impression-Severity (CGI-S), the patient reported Symptoms of Major Depressive Disorder Scale (SMDDS) and the self-assessment of treatment experience (SATE). […]

subjects with MDD [3] = test: MADRS total score, adjunctive aticaprant vs placebo in MDD (Example 6)
[4] = eITT Analysis Set, High anhedonia, Treatment Week 1
[5] = eITT Analysis Set, High anhedonia, Treatment Week 3
[6] = eITT Analysis Set, High anhedonia, Treatment Week 4
[7] = eITT Analysis Set, High anhedonia, Treatment Week 5
[8] = eITT Analysis Set, High anhedonia, Treatment Week 6
[9] = eITT Analysis Set, Low anhedonia, Treatment Week 1
[10] = eITT Analysis Set, Low anhedonia, Treatment Week 3
[11] = eITT Analysis Set, Low anhedonia, Treatment Week 4
[12] = eITT Analysis Set, Low anhedonia, Treatment Week 5
[13] = eITT Analysis Set, Low anhedonia, Treatment Week 6
[14] = eITT, Treatment Week 1, 10 mg adjunctive to SSRI/SNRI
[15] = eITT, Treatment Week 3, 10 mg adjunctive to SSRI/SNRI
[16] = eITT, Treatment Week 4, 10 mg adjunctive to SSRI/SNRI
[17] = eITT, Treatment Week 5, 10 mg adjunctive to SSRI/SNRI
[18] = eITT, Treatment Week 6, 10 mg adjunctive to SSRI/SNRI

**Q.** Which results are given for `Cc1cc(C)cc(C2CCCN2Cc2ccc(Oc3ccc(C(N)=O)cc3F)cc2)c1` (stereo not shown) [aticaprant, 3-fluoro-4-4-2-(3,5-dimethylphenyl)pyrrolidin-1-yl-methylphenoxybenzamide]?
**A.** Change from Treatment Baseline in HAM-A6 Total Score, Arithmetic Mean (SD) (subjects with MDD [1]): −2.73 ± 2.651 scores on a scale; Change from Treatment Baseline in CGI-S Total Score, Arithmetic Mean (SD) (subjects with MDD [2]): −0.92 ± 1.039 Scores on a scale; Change from Treatment Baseline in MADRS Total Score, Least Squares Mean (Standard Error) (subjects with MDD [3]; Treatment Week 6, both responders and non-responders during placebo lead-in, 10 mg): −9.6 ± 0.79 score on a scale; MADRS Total Score Least Squares Mean Difference, point estimate (subjects with MDD [3]; Treatment Week 6, both responders and non-responders during placebo lead-in, 10 mg vs placebo): −3.1 score on a scale; MADRS Total Score Effect size (subjects with MDD [3]; [4]): −0.39; MADRS Total Score Mean Change from Baseline (SD) (subjects with MDD [3]; [4]): −4.6 (5.25); MADRS Total Score Mean Change to Placebo (SD pooled) (subjects with MDD [3]; [4]): −1.8 (4.69); MADRS Total Score Effect size (subjects with MDD [3]; [5]): −0.46; MADRS Total Score Mean Change from Baseline (SD) (subjects with MDD [3]; [5]): −6.7 (6.83); MADRS Total Score Mean Change to Placebo (SD pooled) (subjects with MDD [3]; [5]): −3.0 (6.59); MADRS Total Score Effect size (subjects with MDD [3]; [6]): −0.30; MADRS Total Score Mean Change from Baseline (SD) (subjects with MDD [3]; [6]): −8.5 (7.26); MADRS Total Score Mean Change to Placebo (SD pooled) (subjects with MDD [3]; [6]): −2.2 (7.30); MADRS Total Score Effect size (subjects with MDD [3]; [7]): −0.33; MADRS Total Score Mean Change from Baseline (SD) (subjects with MDD [3]; [7]): −9.7 (8.18); MADRS Total Score Mean Change to Placebo (SD pooled) (subjects with MDD [3]; [7]): −2.6 (7.93); MADRS Total Score Effect size (subjects with MDD [3]; [8]): −0.38; MADRS Total Score Mean Change from Baseline (SD) (subjects with MDD [3]; [8]): −11.5 (8.95); MADRS Total Score Mean Change to Placebo (SD pooled) (subjects with MDD [3]; [8]): −3.4 (8.98); MADRS Total Score Effect size (subjects with MDD [3]; [9]): −0.12; MADRS Total Score Mean Change from Baseline (SD) (subjects with MDD [3]; [9]): −2.3 (5.03); MADRS Total Score Mean Change to Placebo (SD pooled) (subjects with MDD [3]; [9]): −0.5 (4.30); MADRS Total Score Effect size (subjects with MDD [3]; [10]): −0.01; MADRS Total Score Mean Change from Baseline (SD) (subjects with MDD [3]; [10]): −4.9 (5.99); MADRS Total Score Mean Change to Placebo (SD pooled) (subjects with MDD [3]; [10]): −0.1 (5.85); MADRS Total Score Effect size (subjects with MDD [3]; [11]): 0.01; MADRS Total Score Mean Change from Baseline (SD) (subjects with MDD [3]; [11]): −6.4 (7.40); MADRS Total Score Mean Change to Placebo (SD pooled) (subjects with MDD [3]; [11]): 0.0 (6.80); MADRS Total Score Effect size (subjects with MDD [3]; [12]): 0.05; MADRS Total Score Mean Change from Baseline (SD) (subjects with MDD [3]; [12]): −7.2 (6.46); MADRS Total Score Mean Change to Placebo (SD pooled) (subjects with MDD [3]; [12]): 0.3 (6.65); MADRS Total Score Effect size (subjects with MDD [3]; [13]): −0.11; MADRS Total Score Mean Change from Baseline (SD) (subjects with MDD [3]; [13]): −9.2 (8.01); MADRS Total Score Mean Change to Placebo (SD pooled) (subjects with MDD [3]; [13]): −0.9 (8.13); MADRS Total Score Change from Baseline LSMean (SE), MMRM (subjects with MDD [3]; [14]): −3.2; MADRS Total Score LSMean Difference (SE) Treatment - Placebo, MMRM (subjects with MDD [3]; [14]): −1.2 (1.24); MADRS Total Score Mean (SD) (subjects with MDD [3]; [14]): 25.4; MADRS Total Score Mean Change from Baseline (SD) (subjects with MDD [3]; [14]): −3.3; MADRS Total Score Mean Change to Placebo (SD pooled) (subjects with MDD [3]; [14]): −1.1 (4.52); MADRS Total Score Mean Change from Baseline (SD) (subjects with MDD [3]; eITT, Treatment Week 1, 10 mg adjunctive to SSRI/SNRI, listed as Aticaprant): −3.3 (5.21); MADRS Total Score Effect size (subjects with MDD [3]; eITT, Treatment Week 1, vs placebo, negative favors aticaprant): −0.24; MADRS Total Score Change from Baseline LSMean (SE), MMRM (subjects with MDD [3]; [15]): −5.6; MADRS Total Score LSMean Difference (SE) Treatment - Placebo, MMRM (subjects with MDD [3]; [15]): −1.5 (1.25); MADRS Total Score Mean (SD) (subjects with MDD [3]; [15]): 23.1; MADRS Total Score Mean Change from Baseline (SD) (subjects with MDD [3]; [15]): −5.7; MADRS Total Score Mean Change to Placebo (SD pooled) (subjects with MDD [3]; [15]): −1.4 (6.18); MADRS Total Score Mean Change from Baseline (SD) (subjects with MDD [3]; eITT, Treatment Week 3, 10 mg adjunctive to SSRI/SNRI, listed as Aticaprant): −5.7 (6.38); MADRS Total Score Effect size (subjects with MDD [3]; eITT, Treatment Week 3, vs placebo, negative favors aticaprant): −0.22; MADRS Total Score Change from Baseline LSMean (SE), MMRM (subjects with MDD [3]; [16]): −7.3; MADRS Total Score LSMean Difference (SE) Treatment - Placebo, MMRM (subjects with MDD [3]; [16]): −1.1 (1.25); MADRS Total Score Mean (SD) (subjects with MDD [3]; [16]): 21.5; MADRS Total Score Mean Change from Baseline (SD) (subjects with MDD [3]; [16]): −7.3; MADRS Total Score Mean Change to Placebo (SD pooled) (subjects with MDD [3]; [16]): −0.9 (7.00); MADRS Total Score Mean Change from Baseline (SD) (subjects with MDD [3]; eITT, Treatment Week 4, 10 mg adjunctive to SSRI/SNRI, listed as Aticaprant): −7.3 (7.35); MADRS Total Score Effect size (subjects with MDD [3]; eITT, Treatment Week 4, vs placebo, negative favors aticaprant): −0.14; MADRS Total Score Change from Baseline LSMean (SE), MMRM (subjects with MDD [3]; [17]): −8.7; MADRS Total Score LSMean Difference (SE) Treatment - Placebo, MMRM (subjects with MDD [3]; [17]): −1.5 (1.25); MADRS Total Score Mean (SD) (subjects with MDD [3]; [17]): 20.5; MADRS Total Score Mean Change from Baseline (SD) (subjects with MDD [3]; [17]): −8.4; MADRS Total Score Mean Change to Placebo (SD pooled) (subjects with MDD [3]; [17]): −1.1 (7.25); MADRS Total Score Mean Change from Baseline (SD) (subjects with MDD [3]; eITT, Treatment Week 5, 10 mg adjunctive to SSRI/SNRI, listed as Aticaprant): −8.4 (7.36); MADRS Total Score Effect size (subjects with MDD [3]; eITT, Treatment Week 5, vs placebo, negative favors aticaprant): −0.14; percentage of subjects with MADRS remission (MADRS total score ≤10) (subjects with MDD [3]; eITT, Treatment Week 6): 16.9%; percentage of subjects with ≥30% improvement in MADRS total score (subjects with MDD [3]; eITT, Treatment Week 6): 57.6%; percentage of subjects with ≥50% improvement in MADRS total score (subjects with MDD [3]; eITT, Treatment Week 6): 35.6%; MADRS Total Score Change from Baseline LSMean (SE), MMRM (subjects with MDD [3]; [18]): −10.1; MADRS Total Score Mean (SD) (subjects with MDD [3]; [18]): 18.6
